Data on one substance can be found in US20090105171A1, “Methods for Regenerating and Repairing Damaged Tissues Using Adrenomedullin” (priority 2005, published 2009).

Test [1] deals with peripheral blood mononuclear cells. Description: Dynamics of bone marrow cells after AM administration: peripheral blood mononuclear cells and Sca-1-positive cells. It is filed as in vivo, C57BL/6 mice. As to the method:
First, to investigate whether AM has an effect on the dynamics of bone marrow cells, AM or physiological saline was administered randomly to model animals. As the model animals, 48 ten-week old female C57BL/6 mice were used. The transgenic mice (C57BL/6 background) which ubiquitously express green fluorescence protein (GFP) were kindly offered by Professor Masaru Okabe (Osaka University, Japan) (Okabe M, Ikawa M, Kominami K, Nakanishi T, Nishimune Y. ‘Green mice’ as a source of ubiquitous green cells. FEBS Lett 1997; 407: 313-319).
AM (1 μg, 2 μg, or 5 μg in 100 μl physiological saline) was randomly administrated to the C57BL/6 mice (each, n=8) by intraperitoneal injection every day for five days. The control mice were similarly administered with 100 μl physiological saline every day for five days (n=8).
Furthermore, AM or physiological saline was administered to other mice (each, n=8) with a subcutaneous osmotic mini-pump (Alzet, Palo Alto, Calif.) at a delivery rate of 0.05 μg/kg/min for five days. Blood samples were collected on day 5, and mononuclear cells were isolated using Histopaque-1083 (Sigma) by a method known to those skilled in the art (Asahara T, Takahashi T, Masuda H, Kalka C, Chen D, Iwaguro H, Inai Y, Silver M, Isner J M. VEGF contributes to postnatal neovascularization by mobilizing bone marrow-derived endothelial progenitor cells. EMBO J 1999; 18: 3964-3972). The mononuclear cells were counted manually and analyzed with respect to the expression of Sca1-FITC (Sca-1-positive cells: BD Pharmingen, San Diego, Calif.). The immunofluorescence-labeled cells were analyzed by a quantitative flow cytometry using the FACSCalibur Flow Cytometer (BD Biosciences, Mountain View, Calif.). An antibody with the same isotype (BD Pharmingen) was used as a control.

In test [2] the test system is bone marrow-derived cells in the elastase-administered lungs. As to the kind of experiment: Homing and differentiation of bone marrow cells in elastase-treated GFP-positive bone marrow chimeric mice. It is filed as in vivo, C57BL/6 mice. As to conditions: AM group vs physiological saline group, day 28 after elastase injection. The source says:
C57BL/6GFP-positive bone marrow chimeric mice were established for evaluating the dynamics of bone marrow cells.
The above-mentioned bone marrow chimeric mice were produced by a method known to those skilled in the art (Sata M, Saiura A, Kunisato A, Tojo A, Okada S, Tokuhisa T, Hirai H, Makuuchi M, Hirata Y, Nagai R. Hematopoietic stem cells differentiate into vascular cells that participate in the pathogenesis of atherosclerosis. Nat Med 2002; 8: 403-409). To put it briefly, a lethal dose of radiation (900 cGy) was applied to wild-type recipient C57BL/6 mice, and bone marrow cells (3×10^6 cells/300 μl) derived from the GFP mouse were transplanted through the tail vein. In order to quantify the reconstitution of mouse bone marrow, mononuclear cells and bone marrow cells in the peripheral blood were analyzed by flow cytometry four weeks after the bone marrow transplant. The percentages of the GFP-positive peripheral blood mononuclear cells and bone marrow cells in the chimeric mice were 87% to 93% and 85% to 90%, respectively, showing that the original stem cell group was replaced by the donor cell group.
Four weeks after the bone marrow transplant, swine pancreatic elastase (200 units/kg; Sigma, St. Louis, Mo.) was injected intratracheally to the chimeric mice. These mice were divided into two groups: the elastase-treated mice to be administered with physiological saline, and those to be administered with AM (each, n=5).
28 days after the injection of elastase (n=5) or saline solution (n=5), frozen sections were prepared from the lungs of the GFP-positive chimeric mice. The number of GFP-positive cells in the alveolar wall was counted and the result was indicated as the number per 100 alveoli. […] The numbers of GFP/cytokeratin double-positive cells and GFP/vWF double-positive cells were counted, and the results were indicated as the number per 100 alveoli. […]

The test system of test [3] is elastase-induced pulmonary emphysema. Description: Morphological and functional analyses of elastase-treated mice administered with AM. It counts as in vivo, C57BL/6 mice. As to conditions: day 28. As to the method:
The remaining 42 mice were used to examine whether AM improves lung structure and lung function in elastase-induced pulmonary emphysema. The mice were intratracheally injected with swine pancreatic elastase (200 units/kg) or physiological saline at random, and assigned to continuous infusion of either AM or physiological saline. Based on this protocol, the following three groups were prepared: the sham treated mice administrated with physiological saline (the sham treated group, n=14), elastase-treated mice administered with physiological saline (the physiological saline group, n=14), and elastase-treated mice administrated with AM (the AM group, n=14). Each of the above-mentioned Examples was carried out according to the guidelines of Animal Management Ethics Committee of the National Cardiovascular Center (Osaka, Japan).
In fact, in the present invention, findings about lung functions (increase in lung volume and static lung compliance) and morphological findings (increase in the average alveolar diameter) confirmed that emphysematous changes were induced in the lungs by intratracheal injection of elastase, and these findings are consistent with the results from previous studies (Hayes J A, Korthy A, Snider G L. The pathology of elastase-induced panacinar emphysema in hamsters. J Pathol 1975; 117: 1-14; Kuraki T, Ishibashi M, Takayama M, Shiraishi M, Yoshida M. A novel oral neutrophil elastase inhibitor (ONO-6818) inhibits human neutrophil elastase-induced emphysema in rats. Am J Respir Crit Care Med 2002; 166: 496-500). 28 days after the injection of elastase or physiological saline, the mice were anesthetized and their static lung compliance was measured using a computer-controlled small animal ventilator (FlexiVent; Scireq, Montreal, PQ, Canada) (n=7). Lungs were excised and then fixed for 24 hours, while the transpulmonary pressure was maintained at 25 cm H2O (n=7). The lung volume was measured by Scherle's method (Scherle W. A simple method for volumetry of organs in quantitative stereology. Mikroskopie 1970; 26: 57-60). The mean linear intercept, a morphometric parameter of pulmonary emphysema, was calculated for 20 randomly selected regions with a light microscope using a method known to those skilled in the art (Thurlbeck W M. Internal surface area and other measurements in emphysema. Thorax 1967; 22: 483-496). Morphological examination was conducted in a blind manner by three observers.
Further, paraffin sections were obtained from the lungs (n=7), and the tissue sections were stained for vWF to examine whether AM induced angiogenesis in the elastase-administered lungs. Three observers counted the number of vWF-positive blood vessels per mm^2 in a blind test manner.

Test [4] deals with bone marrow-derived cells in ischemic cardiac muscle. As to the kind of experiment: Dynamic analysis of bone marrow-derived cells in a rat model of myocardial infarction. It counts as in vivo, GFP chimeric rats. As to conditions: acute myocardial infarction, AM 0.05 μg/kg/min subcutaneously for seven days vs control group. As to the method: Acute myocardial infarction was produced in GFP chimeric rats (rats expressing GFP in the bone marrow cells) by thoracotomy and then ligation of the anterior descending coronary artery (Fujii T. et al., Am J Physiol Heart Circ Physiol. 288(3): H1444-50, 2005).
After local ischemia is created in the heart by ligation, 0.05 μg/kg/min of AM (the AM group) or 0.9% physiological saline (the control group) was subcutaneously administered for seven days via an osmotic pressure pump.
After acute myocardial infarction was produced, the distributions of bone marrow-derived cells (confirmed by GFP expression), vascular endothelial cells (confirmed by vWF, an endothelial cell marker), and cardiac muscle cells (confirmed by desmin, a cardiac muscle cell marker) in the myocardial infarct area were confirmed. Further, the total sum of the GFP-expressing cell number, vWF-expressing cell number, and desmin-expressing cell number was examined to confirm the states of regeneration of blood vessel and cardiac muscle in the AM group and control group.

Where [5] appears, read: elastase-treated mice, continuous AM infusion.

Regarding adrenomedullin [AM], in test [1] (AM 1 μg/animal, intraperitoneal injection every day for five days, day 5), the “number of the peripheral blood mononuclear cells” value is reported as 120 % of the physiological saline group. Also, the “number of the peripheral blood mononuclear cells” value in test [1] (AM 5 μg/animal, intraperitoneal injection every day for five days, day 5) is 140 % of the physiological saline group. Besides, the “number of the peripheral blood mononuclear cells (dose dependence)” value in test [1] (AM 1, 2 or 5 μg intraperitoneal every day for five days, day 5) was “increased in a dose-dependent manner”. For the same substance, the “number of the peripheral blood mononuclear cells” value in test [1] (continuous AM, subcutaneous osmotic mini-pump 0.05 μg/kg/min for five days, day 5) was 131 % of the physiological saline group. Moreover, the “frequency of Sca-1-positive cells” value in test [1] (continuous AM, subcutaneous osmotic mini-pump 0.05 μg/kg/min for five days, day 5, flow cytometry) is 200 % of the physiological saline group. Moreover, in test [2], the “number of GFP-positive cells incorporated in the lung (alveolar wall, per 100 alveoli)” value is listed as “significantly larger”; the “number of GFP/cytokeratin double-positive cells (per 100 alveoli)” value is listed as “significantly larger”; the “number of GFP/vWF double-positive cells in the alveolar wall” value is on record as “larger”. Further, the “number of vWF-positive lung blood vessels” value in test [3] (elastase-administered lungs, AM vs physiological saline group) is reported as “significantly increased”. Further, the “histological changes (air space enlargement accompanied by destruction of the alveolar wall)” value in test [3] (elastase-injected mice, continuous AM infusion) was “decreased”. In test [3] (setting [5]), the “average alveolar diameter (mean linear intercept): increase over the sham treated group” value is reported as “reduced”, the “increase in static lung compliance” value is “significantly reduced” and the “magnitude of the increase in lung volume” value is given as “reduced”. Moreover, in test [4], the “regeneration of cardiac muscles by bone marrow-derived cells (GFP- and desmin-expressing cells)” value is listed as “significantly enhance”; the “revascularization by bone marrow cells (GFP- and vWF-expressing cells)” value is “significantly increase”.
